Laboratory results: ChEMBL document CHEMBL1127930, “Design, synthesis and biological properties of structurally non-related endotoxin inhibitors” (Bioorg Med Chem Lett, 1994)

Test system: Escherichia coli
Experiment: Compound was evaluated to inhibit the LAL response produced by two endotoxin units of Escherichia coli LPS
Format: functional, organism-based

SMILES | Concentration [µg/mL]
CCCCCCCCCCCCCC[N+](C)(C)C[C@@H]1OCO[C@H]1C[N+](C)(C)CCCCCCCCCCCCCC | 75
CCCCCCCCCCCCCC[N+](C)(C)C[C@@H]1OC(C)(C)O[C@H]1C[N+](C)(C)CCCCCCCCCCCCCC | 75
